From patent US20110039762A1, “TARGETED ANTIMICROBIAL MOIETIES” (C3 JIAN, INC., priority 2009, published 2011)
“Also recorded” adds a separate entry of the source.

Experiments:
S. mutans [1] = assay type: cell-based, Streptococcus mutans; details: S. mutans
Protocol: Typically, the in vitro antimicrobial activity of antimicrobial agents is tested using standard NCCLS bacterial inhibition assays, or MIC tests (see, National Committee on Clinical Laboratory Standards “Performance Standards for Antimicrobial Susceptibility Testing,” NCCLS Document M100-S5 Vol. 14, No. 16, December 1994; “Methods for dilution antimicrobial susceptibility test for bacteria that grow aerobically-Third Edition,” Approved Standard M7-A3, National Committee for Clinical Standards, Villanova, Pa.).
Briefly, ˜1×10^5 cfu/mL bacteria were diluted in TH (S. mutans), or Mueller-Hinton (MH) broth (all other organisms) and distributed to 96-well plates. Serially-diluted (2-fold) peptides were then added and the plates incubated at 37° C. for 18-24 h. […] All experiments were conducted 10 times.

S. epidermidis = experiment: Kill or inhibit growth/proliferation; morphology, biofilm and growth disruption (Tables 5, 6); assay type: cell-based, Staphylococcus epidermidis; set-up: key: A: Peptide aggregates; B: Less hyphal formation; Clumps; Diffuse clumps and small polyps; F: Diffuse growth; H: Thin; I: Growth inhibition; Microcolony formation; Rippled; Small polyps; Thick; W: Halo formation on top, microlonies on bottom; also: test concentration or dose not given here
P. aeruginosa = experiment: as above; assay type: cell-based, Pseudomonas aeruginosa; set-up: key: A: Peptide aggregates; B: Less hyphal formation; Clumps; Diffuse clumps and small polyps; F: Diffuse growth; H: Thin; I: Growth inhibition; Microcolony formation; Rippled; Small polyps; Thick; W: Halo formation on top, microlonies on bottom; also: test concentration or dose not given here
MRSA = experiment: as above; assay type: cell-based, Methicillin-resistant Staphylococcus aureus; set-up: key: A: Peptide aggregates; B: Less hyphal formation; Clumps; Diffuse clumps and small polyps; F: Diffuse growth; H: Thin; I: Growth inhibition; Microcolony formation; Rippled; Small polyps; Thick; W: Halo formation on top, microlonies on bottom; also: test concentration or dose not given here
M. luteus = experiment: as above; assay type: cell-based, Micrococcus luteus; set-up: key: A: Peptide aggregates; B: Less hyphal formation; Clumps; Diffuse clumps and small polyps; F: Diffuse growth; H: Thin; I: Growth inhibition; Microcolony formation; Rippled; Small polyps; Thick; W: Halo formation on top, microlonies on bottom
C. albicans = experiment: as above; assay type: cell-based, Candida albicans; set-up: key: A: Peptide aggregates; B: Less hyphal formation; Clumps; Diffuse clumps and small polyps; F: Diffuse growth; H: Thin; I: Growth inhibition; Microcolony formation; Rippled; Small polyps; Thick; W: Halo formation on top, microlonies on bottom; also: test concentration or dose not given here
microorganisms = experiment: Peptides having multiple activities (targeting/binding, antimicrobial, growth or phenotype altering)
Source text: In certain embodiments, peptides described herein can have multiple activities. Thus for example, a peptide can have both binding/targeting activity and antimicrobial activity. Such peptides can be used, e.g., in a chimeric construct, for any or all of these properties. Thus, for example, a peptide designated “B” in Table 8 can be used as a targeting peptide. If it is also designated G or M it can also be used for antimicrobial activity.

C. jejuni = experiment: Kill or inhibit growth/proliferation; morphology, biofilm and growth disruption (Tables 5, 6); assay type: cell-based, Campylobacter jejuni; set-up: key: A: Peptide aggregates; B: Less hyphal formation; Clumps; Diffuse clumps and small polyps; F: Diffuse growth; H: Thin; I: Growth inhibition; Microcolony formation; Rippled; Small polyps; Thick; W: Halo formation on top, microlonies on bottom; also: test concentration or dose not given here
S. pneumoniae = experiment: as above; assay type: cell-based, Streptococcus pneumoniae; set-up: key: A: Peptide aggregates; B: Less hyphal formation; Clumps; Diffuse clumps and small polyps; F: Diffuse growth; H: Thin; I: Growth inhibition; Microcolony formation; Rippled; Small polyps; Thick; W: Halo formation on top, microlonies on bottom; also: test concentration or dose not given here
C. jeikeium = experiment: as above; assay type: cell-based, Corynebacterium jeikeium; set-up: key: A: Peptide aggregates; B: Less hyphal formation; Clumps; Diffuse clumps and small polyps; F: Diffuse growth; H: Thin; I: Growth inhibition; Microcolony formation; Rippled; Small polyps; Thick; W: Halo formation on top, microlonies on bottom; also: test concentration or dose not given here
E. faecalis = experiment: as above; assay type: cell-based, Enterococcus faecalis; set-up: key: A: Peptide aggregates; B: Less hyphal formation; Clumps; Diffuse clumps and small polyps; F: Diffuse growth; H: Thin; I: Growth inhibition; Microcolony formation; Rippled; Small polyps; Thick; W: Halo formation on top, microlonies on bottom; also: test concentration or dose not given here
E. coli = experiment: as above; assay type: cell-based, Escherichia coli; set-up: key: A: Peptide aggregates; B: Less hyphal formation; Clumps; Diffuse clumps and small polyps; F: Diffuse growth; H: Thin; I: Growth inhibition; Microcolony formation; Rippled; Small polyps; Thick; W: Halo formation on top, microlonies on bottom; also: test concentration or dose not given here
[2] = tested on: microorganisms (e.g., bacteria, yeasts, fungi); experiment: Targeting peptide binding to target microorganisms (Table 3); details: preferably 1x PBS; for Target(s) (microorganisms bound by the targeting peptide): peptide binding in aqueous buffers varied by peptide solubility
S. mutans [3] = experiment: Kill or inhibit growth/proliferation; morphology, biofilm and growth disruption (Tables 5, 6); assay type: cell-based, Streptococcus mutans; set-up: key: A: Peptide aggregates; B: Less hyphal formation; Clumps; Diffuse clumps and small polyps; F: Diffuse growth; H: Thin; I: Growth inhibition; Microcolony formation; Rippled; Small polyps; Thick; W: Halo formation on top, microlonies on bottom; also: test concentration or dose not given here
B. subtilis = experiment: as above; assay type: cell-based, Bacillus subtilis; set-up: key: A: Peptide aggregates; B: Less hyphal formation; Clumps; Diffuse clumps and small polyps; F: Diffuse growth; H: Thin; I: Growth inhibition; Microcolony formation; Rippled; Small polyps; Thick; W: Halo formation on top, microlonies on bottom; also: test concentration or dose not given here
For Organism, effect (morphology, biofilm and growth disruption) in this document: test concentration or dose not given here.
For Organism, effect in this document: test concentration or dose not given here.

With FIRKFLKKWLL [Peptide K-9] the MIC (S. mutans [1]) was “S. mutans, 4 μM”.
For FLKFLKKFFKKLKY [Peptide K-20], the MIC (S. mutans [1]) was “S. mutans, 8 μM”.
With FTRKFLKFLHL [Peptide K-17] the MIC (S. mutans [1]) was “S. mutans, 8 μM”.
In the case of GIFKKFVKILYKVQKL [Peptide K-22], the MIC (S. mutans [1]) is reported as “S. mutans, 8 μM”.
GILKKLFTKVF [Peptide K-13] was tested, and the MIC (S. mutans [1]) was “S. mutans, 16 μM”.
In the case of GLGRVIGRLIKQIIWRR [Peptide K-1], the MIC (S. mutans [1]) is reported as “S. mutans, 25 μM”.
In the case of GWLKMFKKIIGKFGKF [Peptide K-21], the MIC (S. mutans [1]) is reported as “S. mutans, 8 μM”.
For KILKFLFKKVF [Peptide K-8], the MIC (S. mutans [1]) was “S. mutans, 4 μM”.
KILKFLFKQVF [Peptide K-11] was tested, and the MIC (S. mutans [1]) was “S. mutans, 4 μM”.
For KILKKLFKFVF [Peptide K-12], the MIC (S. mutans [1]) was “S. mutans, 8 μM”.
With KKFKKFKVLKIL [Peptide K-18] the MIC (S. mutans [1]) was “S. mutans, 16 μM”.
In the case of KLFKFLRKHLL [Peptide K-10], the MIC (S. mutans [1]) is reported as “S. mutans, 4 μM”.
With LLKLLKLKKLKF [Peptide K-19] the MIC (S. mutans [1]) was “S. mutans, 16 μM”.
LRKFLHKLF [Peptide K-14] was tested, and the MIC (S. mutans [1]) was “S. mutans, 8 μM”.
With LRKNLRWLF [Peptide K-15] the MIC (S. mutans [1]) was “S. mutans, 4 μM”.
With NYRLVNAIFSKIFKKKFIKF [Peptide K-7] the MIC (S. mutans [1]) was “S. mutans, 12.5 μM”.
“PF-140: peptide having multiple activities (FHRRVIRASEWALTTRSFSTPLRSAAR; Peptide with targeting and/or antimicrobial activity)” was tested, and the “Organism, effect” value (S. epidermidis) was “S. epidermidis (D)”, the “Organism, effect” value (P. aeruginosa) was “P. aeruginosa (A)” and the “Organism, effect” value (MRSA) was “MRSA (M)”. For the same substance, the “Organism, effect” value (M. luteus) was “M. luteus (R)”, the “Organism, effect” value (C. albicans) was “C. albicans (B)” and the Activities (microorganisms) was “G B”. For the same substance, the “Organism, effect” value (C. jejuni) was “C. jejuni (D)”, the “Organism, effect” value (S. pneumoniae) was “S. pneumoniae (D)” and the “Organism, effect” value (C. jeikeium) was “C. jeikeium (D)”.
In the case of “PF-425: peptide having multiple activities (MMELVLKTIIGPIVVGVVLRIVDKWLNKDK; Peptide with targeting and/or antimicrobial activity)”, the “Organism, effect” value (E. faecalis) is reported as “E. faecalis (D)”, the “Organism, effect” value (E. coli) is reported as “E. coli (C)” and the “Organism, effect” value (S. epidermidis) is reported as “S. epidermidis (D)”. The “Organism, effect” value (P. aeruginosa) was “P. aeruginosa (A)”, the “Organism, effect” value (MRSA) was “MRSA (D)” and the “Target(s)” value ([2]; microorganism(s) the targeting peptide binds, peptide binding conducted in aqueous buffers varied by peptide solubility) was “S. epidermidis and M. luteus and E. coli and P. aeruginosa and C. albicans and MRSA and S. pneumoniae and C. jeikeium”. The “Organism, effect” value (C. albicans) was “C. albicans (A)”, the Activities (microorganisms) was “G B” and the “Organism, effect” value (C. jejuni) was “C. jejuni (D)”. For the same substance, the “Organism, effect” value (S. pneumoniae) was “S. pneumoniae (D)”.
For “PF-474: peptide having multiple activities (chain 1 MHRNLVLVKMEPIPHIMIIANQIGIIIEKA; chain 2 MHRNLVLVKMEPIPHIMIIANQIGIIIEKA; Peptide with targeting and/or antimicrobial activity)”, the “Organism, effect” value (E. faecalis) was “E. faecalis (C)”, the “Organism, effect” value (E. coli) was “E. coli (C)” and the “Organism, effect” value (S. epidermidis) was “S. epidermidis (C)”. For the same substance, the “Organism, effect” value (P. aeruginosa) was “P. aeruginosa (A)”, the “Organism, effect” value (MRSA) was “MRSA (D)” and the “Organism, effect” value (C. albicans) was “C. albicans (B)”. The Activities (microorganisms) was “G B”, the “Organism, effect” value (C. jejuni) was “C. jejuni (D)” and the “Organism, effect” value (S. pneumoniae) was “S. pneumoniae (D)”.
For “PF-605: peptide having multiple activities (HYRWNTQWWKY; Peptide with targeting and/or antimicrobial activity)”, the “Organism, effect” value (E. faecalis) was “E. faecalis (R)”, the “Organism, effect” value (E. coli) was “E. coli (C)” and the “Organism, effect” value (S. epidermidis) was “S. epidermidis (R)”. The “Organism, effect” value (P. aeruginosa) was “P. aeruginosa (A)”, the “Organism, effect” value (MRSA) was “MRSA (C)” and the “Organism, effect” value (C. albicans) was “C. albicans (B)”. The Activities (microorganisms) was “G B”, the “Organism, effect” value (C. jejuni) was “C. jejuni (R)” and the “Organism, effect” value (S. pneumoniae) was “S. pneumoniae (D)”.
“PF-746: peptide having multiple activities (FLGNSQYFTRK; Peptide with targeting and/or antimicrobial activity)” was tested, and the “Organism, effect (morphology, biofilm and growth disruption)” value (E. coli) was “E. coli (C)”, the “Organism, effect (morphology, biofilm and growth disruption)” value (S. epidermidis) was “S. epidermidis (C)” and the “Organism, effect (morphology, biofilm and growth disruption)” value (P. aeruginosa) was “P. aeruginosa (A)”. The “Organism, effect (morphology, biofilm and growth disruption)” value (MRSA) was “MRSA (C)”, the “Target(s) (microorganisms bound by the targeting peptide)” value [2] was “S. epidermidis; also recorded: M. luteus; also recorded: E. coli; also recorded: C. albicans; also recorded: S. pneumoniae; also recorded: E. faecalis; also recorded: C. jeikeium” and the “Organism, effect (morphology, biofilm and growth disruption)” value (M. luteus) was “M. luteus (C)”. For the same substance, the Activities (microorganisms) was “G B”, the “Organism, effect (morphology, biofilm and growth disruption)” value (S. mutans [3]) was “S. mutans (D)” and the “Organism, effect (morphology, biofilm and growth disruption)” value (S. pneumoniae) was “S. pneumoniae (C)”.
In the case of “PF-761: peptide having multiple activities (SKFELVNYASGCSCGADCKCASETECKCASKK; Peptide with targeting and/or antimicrobial activity)”, the “Organism, effect (morphology, biofilm and growth disruption)” value (E. coli) is reported as “E. coli (C)”, the “Organism, effect (morphology, biofilm and growth disruption)” value (S. epidermidis) is reported as “S. epidermidis (C)” and the “Organism, effect (morphology, biofilm and growth disruption)” value (P. aeruginosa) is reported as “P. aeruginosa (C)”. The “Organism, effect (morphology, biofilm and growth disruption)” value (MRSA) was “MRSA (D)”, the “Target(s) (microorganisms bound by the targeting peptide)” value [2] was “S. epidermidis and M. luteus and P. mirabilis and P. aeruginosa and C. albicans and MRSA and S. pneumoniae and E. faecalis” and the “Organism, effect (morphology, biofilm and growth disruption)” value (M. luteus) was “M. luteus (C)”. The Activities (microorganisms) was “G B”, the “Organism, effect (morphology, biofilm and growth disruption)” value (S. mutans [3]) was “S. mutans (D)” and the “Organism, effect (morphology, biofilm and growth disruption)” value (S. pneumoniae) was “S. pneumoniae (C)”.
For “PF-S003: peptide having multiple activities (ALALLKQDLLNFEGRGRIITSTYLQFNEGCVP; Peptide with targeting and/or antimicrobial activity)”, the “Organism, effect (morphology, biofilm and growth disruption)” value (B. subtilis) was “B. subtilis (A)”, the “Organism, effect (morphology, biofilm and growth disruption)” value (S. epidermidis) was “S. epidermidis (R)” and the “Organism, effect (morphology, biofilm and growth disruption)” value (P. aeruginosa) was “P. aeruginosa (A)”. The “Organism, effect (morphology, biofilm and growth disruption)” value (MRSA) was “MRSA (M)”, the “Organism, effect (morphology, biofilm and growth disruption)” value (M. luteus) was “M. luteus (R)” and the “Organism, effect (morphology, biofilm and growth disruption)” value (C. albicans) was “C. albicans (A)”. For the same substance, the Activities (microorganisms) was “G B”, the “Organism, effect (morphology, biofilm and growth disruption)” value (C. jejuni) was “C. jejuni (D)” and the “Organism, effect (morphology, biofilm and growth disruption)” value (S. pneumoniae) was “S. pneumoniae (D)”. For the same substance, the “Organism, effect (morphology, biofilm and growth disruption)” value (C. jeikeium) was “C. jeikeium (D)”.
With VYRKRKSILKIYAKLKGWH [Peptide K-2] the MIC (S. mutans [1]) was “S. mutans, 12.5 μM”.
